Measurements taken from patent US9849194B2, “Compositions and methods for imaging and treatment” (New York University, priority 2014, dated 2017).

Experiments:
HeLa cells [1] = test: In vitro hyperthermia treatment, HeLa cell viability; type: cell-based; settings: 2 hours incubation, with or without hyperthermia treatments
Procedure: Cell viability tests in presence and in absence of AMF were performed in order to evaluate the effect of combined treatments (hyperthermia and chemotherapy) on HeLa cell viability (FIG. 31). Hela cells were incubated for two hours with no additives, Dox, CB[7]NPs or Dox-CB[7]NPs. Selected samples were then subjected to an alternating magnetic field (464 kHz) for one hour. […] The lack of significant cytotoxicity in the cells incubated with Dox or CB[7]NPs is consistent with the limited cellular uptake of the free drug or the lack of toxicity of the nanocarrier respectively.
In vitro hyperthermia treatment. Viability tests on HeLa cells were performed to investigate the combined effect of both hyperthermia and chemotherapy treatment. Petri-dishes were seeded with HeLa cells (˜50000 cells/mL) and incubated at 37° C. After 24 hours, DMEM was removed, replaced with the following solutions: DMEM (control), Dox ([Dox]=76 μM) and Dox-CB[7]NPs ([Dox]=76 μM, [Iron]=0.04 M) and incubated for 2 hours. […] Two cell viability readings were taken, immediately after hyperthermia treatment and 18 hours after hyperthermia. For cell viability studies 200 μL of CTB per 1 mL of DMEM was added to each petri-dish and incubated for 6 hours after which the medium with CTB was transferred to 96 well plate to take the fluorescence reading.

HeLa cells [2] = test: Morphology of HeLa cells after hyperthermia and chemotherapy; type: cell-based; settings: one-hour hyperthermia, confocal microscopy
Procedure: Morphology of the cells after hyperthermia and chemotherapy. To assess changes in cell morphology, HeLa cells (˜50000 cells/mL) were cultured in petri-dishes and incubated at 37° C. After 24 hours, DMEM was removed, replaced with the following solutions: DMEM (control), Dox ([Dox]=76 μM) and Dox-CB[7]NPs ([Dox]=76 μM, [Iron]=0.04 M) and incubated for 2 hours. After the treatment, the cells were washed with PBS 3 times and 1 mL of DMEM was added. One petri-dish from each condition was subjected to one hour of magnetic hyperthermia (frequency=464 kHz, current=26.8 kAm^−1) while other petri-dishes were used as control.
After magnetic hyperthermia treatment, DMEM was removed, the cells were washed with PBS three times and 1 ml of prepared formaldehyde solution (Vformaldehyde=1 mL, Vdistilled water=9 mL) was added to the cells for […] to fix them. After removal of formaldehyde solution the cells were allowed to dry at room temperature for 48 hours in a dark place to prevent photodegradation of Dox. Confocal microscopy used observe changes in the morphology of treated cells compared to control cells.

HeLa cells [3] = test: In vitro cellular uptake in HeLa cells (fluorescence microscopy); type: cell-based
HCT116 cells [4] = test: cells; settings: Homo sapiens, HCT-116, 48 h
Procedure: In order to determine the effectiveness of our nanoparticle system, we conducted a cancer cell viability study on our nanoparticle-drug system and compared it to effectiveness of the free drug (without the NP system). The Promega CellTiter-Blue® Cell Viability Assay was used. The drug, in one condition, and the Drug-NP complex, in another, were incubated with HCT-116 colon cancer cells for 48 hours. Different concentrations of the drug were used (ranging from 0 nM to 500 nM). After the designated incubation time, the IC50—the concentration of the drug needed to inhibit 50% of the cancer cells incubated—was then measured for both conditions.

HCT116 cells [5] = test: In vitro cytotoxicity assay, CellTiter-Blue; type: cell-based, human
Procedure: In vitro cytotoxicity assay. Cell viability was evaluated using the Promega CellTiter-Blue® Cell Viability assay. It uses the indicator dye resazurin to measure the metabolic capacity of cells—an indicator of cell viability. Viable cells retain the ability to reduce resazurin into resorufin, which is highly fluorescent. […] HCT116 cells were seeded at a density of 5×10^4 cells per well in 96-well flat-bottom plates and incubated in 10% FBS-medium for 24 hours. […] After 24 hours incubation, cells were washed with phosphate buffered saline (PBS, Amresco Biotechnolgy grade) and incubated with 20 μL of CellTiter-Blue® Reagent for additional 6 hours at 37° C. The fluorescence corresponding to the resorufin (which reflects the relative viable cell number) was measured at 590 nm using a Synergy H1 Hybrid Reader Biotek. The measurement was performed on untreated cells as a blank control.

In the case of `COc1cccc2c1C(=O)c1c(O)c3c(c(O)c1C2=O)C[C@@](O)(C(=O)CO)C[C@@H]3O[C@H]1C[C@H](N)[C@H](O)[C@H](C)O1` [Dox, Doxorubicin], the reduction in viability (HeLa cells [1]) is reported as “Minimal reductions in viability”, the “cell morphology after hyperthermia session” value (HeLa cells [2]) is reported as “normal morphology” and the “fluorescence of treated cells” value (HeLa cells [3]; 2 hours, [DOX]=10 μM) is reported as “weakly fluorescent”. The “normalized fluorescence intensity relative to red emission of Dox-CB[7]NPs” value (HeLa cells [3]; 3 hours at 37° C., same dose of Dox, excitation at 488 nm) was 40%.

`CC(=O)O[C@H]1C(=O)[C@@]2(C)[C@H]([C@H](OC(=O)c3ccccc3)[C@]3(O)C[C@H](OC(=O)[C@H](O)[C@@H](NC(=O)c4ccccc4)c4ccccc4)C(C)=C1C3(C)C)[C@]1(OC(C)=O)CO[C@@H]1C[C@@H]2O` [Paclitaxel] was tested, and the IC50 (HCT116 cells [4]) was 71 nM.

cucurbit[7]uril [CB[7]] was tested, and the cytotoxic effects (HCT116 cells [5]; 24 hours of incubation, concentrations as high as 100 μM) was “Neither CB[7] nor CB[7]NPs displayed cytotoxic effects” and the cytotoxic effects (HCT116 cells [5]; CB[7] concentrations of 1 to 100 μM, 24 hour incubation) was “neither CB[7] nor CB[7]NPs elicit cytotoxic effects”.
